Like-named read-outs stand apart in the source and are kept apart here.
Biological target: T1, rNav1.2 sodium channels (Rattus norvegicus, UniProt P04775)
T1 construct: host or cells: HEK-293
Experiment: QPatch automated patch clamp, inhibition of sodium currents evoked by 5 Hz trains at three extracellular pH values
Type: cell-based
Conditions: for class of pH-dependence pattern (cluster analysis): Ward's method on 18 variables of affinity, reversibility, onset
Method in brief: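 Trains of 5 steps from −90 to −10 mV every 20 s. Apparent affinity, onset/offset time constants (single-exponential fits) and reversibility (w−i)/(c−i) were derived from single-concentration data.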

[1] = pH 6.0, concentration (lidocaine 300 μM, memantine 30 μM)
[2] = pH 6.0, single concentration (lidocaine 300 μM, memantine 30 μM), geometric mean of 5, read-out: apparent affinity
[3] = pH 7.3, concentration (lidocaine 300 μM, memantine 30 μM)
[4] = pH 7.3, single concentration (lidocaine 300 μM, memantine 30 μM), geometric mean of 5, read-out: apparent affinity
[5] = pH 8.6, concentration (lidocaine 300 μM, memantine 30 μM)
[6] = pH 8.6, single concentration (lidocaine 300 μM, memantine 30 μM), geometric mean of 5, read-out: apparent affinity
[7] = pH 6.0, higher concentration: lidocaine 1000 μM, memantine 100 μM
[8] = pH 7.3, higher concentration: lidocaine 1000 μM, memantine 100 μM
[9] = pH 8.6, higher concentration: lidocaine 1000 μM, memantine 100 μM
[10] = pH=6.0, cc 100 mM, read-out: Apparent Affinity
[11] = pH=7.3, cc 100 mM, read-out: Apparent Affinity
[12] = pH=8.6, cc 100 mM, read-out: Apparent Affinity

T1 sequence (P04775 whole entry): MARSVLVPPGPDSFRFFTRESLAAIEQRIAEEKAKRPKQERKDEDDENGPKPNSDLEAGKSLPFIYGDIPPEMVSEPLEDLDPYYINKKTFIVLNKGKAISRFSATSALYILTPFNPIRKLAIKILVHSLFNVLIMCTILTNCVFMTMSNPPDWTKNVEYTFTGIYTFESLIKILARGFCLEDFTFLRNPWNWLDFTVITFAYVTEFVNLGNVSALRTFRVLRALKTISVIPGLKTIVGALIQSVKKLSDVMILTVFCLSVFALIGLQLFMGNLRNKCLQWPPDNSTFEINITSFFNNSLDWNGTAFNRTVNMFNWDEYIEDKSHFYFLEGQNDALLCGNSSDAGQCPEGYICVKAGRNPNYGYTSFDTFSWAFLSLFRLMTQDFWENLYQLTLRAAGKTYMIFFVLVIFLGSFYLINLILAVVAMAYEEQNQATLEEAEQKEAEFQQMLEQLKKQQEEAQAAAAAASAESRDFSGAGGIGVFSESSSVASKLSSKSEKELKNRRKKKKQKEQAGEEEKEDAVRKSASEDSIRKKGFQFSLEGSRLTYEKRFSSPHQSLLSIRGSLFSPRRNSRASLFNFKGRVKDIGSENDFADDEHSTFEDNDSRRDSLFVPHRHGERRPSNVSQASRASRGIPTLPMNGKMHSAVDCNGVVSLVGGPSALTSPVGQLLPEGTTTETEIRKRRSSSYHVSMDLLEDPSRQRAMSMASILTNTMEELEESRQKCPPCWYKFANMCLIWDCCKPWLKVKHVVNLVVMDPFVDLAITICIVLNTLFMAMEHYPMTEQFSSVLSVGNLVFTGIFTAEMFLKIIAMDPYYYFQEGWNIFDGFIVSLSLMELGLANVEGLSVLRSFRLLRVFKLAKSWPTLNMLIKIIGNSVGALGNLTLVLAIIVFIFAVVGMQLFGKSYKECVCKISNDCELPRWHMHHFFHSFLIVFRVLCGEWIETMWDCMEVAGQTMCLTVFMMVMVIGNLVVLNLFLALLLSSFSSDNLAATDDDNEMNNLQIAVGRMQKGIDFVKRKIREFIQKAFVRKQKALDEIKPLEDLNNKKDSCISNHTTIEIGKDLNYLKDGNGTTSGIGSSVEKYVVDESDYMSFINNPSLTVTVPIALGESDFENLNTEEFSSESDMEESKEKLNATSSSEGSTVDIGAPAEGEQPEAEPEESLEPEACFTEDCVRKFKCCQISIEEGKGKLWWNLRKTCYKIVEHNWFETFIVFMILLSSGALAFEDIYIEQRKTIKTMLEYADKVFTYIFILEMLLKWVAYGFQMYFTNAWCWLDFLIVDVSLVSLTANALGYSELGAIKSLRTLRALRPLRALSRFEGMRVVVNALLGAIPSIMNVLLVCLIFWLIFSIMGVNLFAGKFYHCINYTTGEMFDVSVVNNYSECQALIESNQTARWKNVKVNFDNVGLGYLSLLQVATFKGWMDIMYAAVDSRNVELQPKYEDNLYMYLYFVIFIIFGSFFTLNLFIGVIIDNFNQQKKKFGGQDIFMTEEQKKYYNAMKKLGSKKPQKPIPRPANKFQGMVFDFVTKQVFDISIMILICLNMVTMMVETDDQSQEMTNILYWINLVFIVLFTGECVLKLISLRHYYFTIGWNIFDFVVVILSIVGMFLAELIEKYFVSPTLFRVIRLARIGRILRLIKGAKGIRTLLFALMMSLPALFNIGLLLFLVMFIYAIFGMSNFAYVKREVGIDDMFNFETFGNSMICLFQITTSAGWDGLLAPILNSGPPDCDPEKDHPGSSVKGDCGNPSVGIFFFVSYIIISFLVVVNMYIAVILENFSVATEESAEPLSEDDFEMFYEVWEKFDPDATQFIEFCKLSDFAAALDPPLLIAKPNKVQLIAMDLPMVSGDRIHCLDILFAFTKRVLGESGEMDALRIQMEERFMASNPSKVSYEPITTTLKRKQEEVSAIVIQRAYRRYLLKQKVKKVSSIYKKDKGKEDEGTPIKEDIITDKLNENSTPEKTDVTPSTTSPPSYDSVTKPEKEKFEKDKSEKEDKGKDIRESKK

O=C1NC(=O)C(c2ccccc2)(c2ccccc2)N1 [phenytoin]
class of pH-dependence pattern (cluster analysis): Class A | Ratio Reversibility (pH 6.0/7.3, cc 300 mM): 1.014 | Ratio Tau Offset (pH 6.0/7.3, cc 300 mM): 1.227 | Ratio Tau Onset (pH 6.0/7.3, cc 300 mM): 0.985 | log Ratio App Aff (pH 6.0/7.3, cc 300 mM): 0.026 | Ratio Reversibility (pH 6.0/8.6, cc 300 mM): 1.313 | Ratio Tau Offset (pH 6.0/8.6, cc 300 mM): 0.993 | Ratio Tau Onset (pH 6.0/8.6, cc 300 mM): 0.650 | log Ratio App Aff (pH 6.0/8.6, cc 300 mM): 0.109 | τoffset [1]: 21.26 s | τonset [1]: 13.00 s | Kd [2]: 830 µM | Ratio Reversibility (pH 7.3/8.6, cc 300 mM): 1.295 | Ratio Tau Offset (pH 7.3/8.6, cc 300 mM): 0.809 | Ratio Tau Onset (pH 7.3/8.6, cc 300 mM): 0.660 | log Ratio App Aff (pH 7.3/8.6, cc 300 mM): 0.083 | τoffset [3]: 17.32 s | τonset [3]: 13.20 s | Kd [4]: 781 µM | τoffset [5]: 21.40 s | τonset [5]: 20.00 s | Kd [6]: 646 µM | Reversibility (pH=6.0, cc 300 mM): 0.83 | Kd (pH=6.0, cc 300 mM, read-out: Apparent Affinity): 830 µM | Reversibility (pH=7.3, cc 300 mM): 0.82 | Kd (pH=7.3, cc 300 mM, read-out: Apparent Affinity): 781 µM | Reversibility (pH=8.6, cc 300 mM): 0.63 | Kd (pH=8.6, cc 300 mM, read-out: Apparent Affinity): 646 µM

CNCCC(Oc1ccccc1OC)c1ccccc1 (stereo not drawn) [nisoxetine]
Kd (Apparent Affinity, pH=6.0, cc 100 mM): 210 µM | Kd (Apparent Affinity, pH=7.3, cc 100 mM): 80.1 µM | Kd (Apparent Affinity, pH=8.6, cc 100 mM): 28.6 µM | class of pH-dependence pattern (cluster analysis): Class F | Kd (apparent affinity, pH 6.0, single concentration (lidocaine 300 μM, memantine 30 μM), geometric mean of 5): 210 µM | Kd (apparent affinity, pH 7.3, single concentration (lidocaine 300 μM, memantine 30 μM), geometric mean of 5): 80.1 µM | Kd (apparent affinity, pH 8.6, single concentration (lidocaine 300 μM, memantine 30 μM), geometric mean of 5): 28.6 µM | Ratio Reversibility (pH 6.0/7.3, cc 100 mM): 1.076 | Ratio Tau Offset (pH 6.0/7.3, cc 100 mM): 0.636 | Ratio Tau Onset (pH 6.0/7.3, cc 100 mM): 0.550 | log Ratio App Aff (pH 6.0/7.3, cc 100 mM): 0.419 | Ratio Reversibility (pH 6.0/8.6, cc 100 mM): 1.973 | Ratio Tau Offset (pH 6.0/8.6, cc 100 mM): 0.947 | Ratio Tau Onset (pH 6.0/8.6, cc 100 mM): 1.245 | log Ratio App Aff (pH 6.0/8.6, cc 100 mM): 0.867 | τoffset [1]: 19.60 s | τonset [1]: 13.20 s | Ratio Reversibility (pH 7.3/8.6, cc 100 mM): 1.833 | Ratio Tau Offset (pH 7.3/8.6, cc 100 mM): 1.489 | Ratio Tau Onset (pH 7.3/8.6, cc 100 mM): 2.263 | log Ratio App Aff (pH 7.3/8.6, cc 100 mM): 0.448 | τoffset [3]: 30.82 s | τonset [3]: 23.99 s | τoffset [5]: 20.70 s | τonset [5]: 10.60 s | Reversibility (pH=6.0, cc 100 mM): 0.75 | Reversibility (pH=7.3, cc 100 mM): 0.69 | Reversibility (pH=8.6, cc 100 mM): 0.38

CC12CC3CC(C)(C1)CC(N)(C3)C2 [memantine]
class of pH-dependence pattern (cluster analysis): Class F | Ratio Reversibility (pH 6.0/7.3, cc 30 mM): 0.946 | Ratio Tau Offset (pH 6.0/7.3, cc 30 mM): 1.093 | Ratio Tau Onset (pH 6.0/7.3, cc 30 mM): 0.877 | log Ratio App Aff (pH 6.0/7.3, cc 30 mM): 0.255 | Ratio Reversibility (pH 6.0/7.3, cc 100 mM): 0.974 | Ratio Tau Offset (pH 6.0/7.3, cc 100 mM): 0.656 | Ratio Tau Onset (pH 6.0/7.3, cc 100 mM): 1.032 | log Ratio App Aff (pH 6.0/7.3, cc 100 mM): 0.109 | Ratio Reversibility (pH 6.0/8.6, cc 30 mM): 1.464 | Ratio Tau Offset (pH 6.0/8.6, cc 30 mM): 1.000 | Ratio Tau Onset (pH 6.0/8.6, cc 30 mM): 0.688 | log Ratio App Aff (pH 6.0/8.6, cc 30 mM): 0.915 | Ratio Reversibility (pH 6.0/8.6, cc 100 mM): 1.593 | Ratio Tau Offset (pH 6.0/8.6, cc 100 mM): 0.550 | Ratio Tau Onset (pH 6.0/8.6, cc 100 mM): 0.842 | log Ratio App Aff (pH 6.0/8.6, cc 100 mM): 0.840 | τoffset [1]: 23.60 s | τonset [1]: 12.80 s | τoffset [7]: 12.20 s | τonset [7]: 12.80 s | Kd (pH 6.0, higher concentration: lidocaine 1000 μM, memantine 100 μM, read-out: apparent affinity): 303 µM | Kd [2]: 394 µM | Ratio Reversibility (pH 7.3/8.6, cc 30 mM): 1.547 | Ratio Tau Offset (pH 7.3/8.6, cc 30 mM): 0.915 | Ratio Tau Onset (pH 7.3/8.6, cc 30 mM): 0.785 | log Ratio App Aff (pH 7.3/8.6, cc 30 mM): 0.661 | Ratio Reversibility (pH 7.3/8.6, cc 100 mM): 1.636 | Ratio Tau Offset (pH 7.3/8.6, cc 100 mM): 0.838 | Ratio Tau Onset (pH 7.3/8.6, cc 100 mM): 0.816 | log Ratio App Aff (pH 7.3/8.6, cc 100 mM): 0.731 | τoffset [3]: 21.60 s | τonset [3]: 14.60 s | τoffset [8]: 18.60 s | τonset [8]: 12.40 s | Kd (pH 7.3, higher concentration: lidocaine 1000 μM, memantine 100 μM, read-out: apparent affinity): 236 µM | Kd [4]: 219 µM | τoffset [5]: 23.60 s | τonset [5]: 18.60 s | τoffset [9]: 22.20 s | τonset [9]: 15.20 s | Kd (pH 8.6, higher concentration: lidocaine 1000 μM, memantine 100 μM, read-out: apparent affinity): 43.8 µM | Kd [6]: 47.9 µM | KD app, effect of acidic medium (pH = 6.0 vs neutral, increased KD app = decreased apparent affinity): MEM,MEX,TOL↑ | Reversibility (pH=6.0, cc 30 mM): 0.82 | Kd (pH=6.0, cc 30 mM, read-out: Apparent Affinity): 394 µM | Reversibility (pH=6.0, cc 100 mM): 0.89 | Kd [10]: 303 µM | Reversibility (pH=7.3, cc 30 mM): 0.86 | Kd (pH=7.3, cc 30 mM, read-out: Apparent Affinity): 219 µM | Reversibility (pH=7.3, cc 100 mM): 0.92 | Kd [11]: 236 µM | Reversibility (pH=8.6, cc 30 mM): 0.56 | Kd (pH=8.6, cc 30 mM, read-out: Apparent Affinity): 47.9 µM | Reversibility (pH=8.6, cc 100 mM): 0.56 | Kd [12]: 43.8 µM

CN1CCN2c3ncccc3Cc3ccccc3C2C1 (stereo not drawn) [mirtazapine]
class of pH-dependence pattern (cluster analysis): Class D | Ratio Reversibility (pH 6.0/7.3, cc 100 mM): 0.272 | Ratio Tau Offset (pH 6.0/7.3, cc 100 mM): 1.108 | Ratio Tau Onset (pH 6.0/7.3, cc 100 mM): 1.386 | log Ratio App Aff (pH 6.0/7.3, cc 100 mM): 0.353 | Ratio Reversibility (pH 6.0/8.6, cc 100 mM): 0.495 | Ratio Tau Offset (pH 6.0/8.6, cc 100 mM): 0.960 | Ratio Tau Onset (pH 6.0/8.6, cc 100 mM): 1.173 | log Ratio App Aff (pH 6.0/8.6, cc 100 mM): 0.925 | τoffset [1]: 14.40 s | τonset [1]: 12.20 s | Kd [2]: 317 µM | Ratio Reversibility (pH 7.3/8.6, cc 100 mM): 1.821 | Ratio Tau Offset (pH 7.3/8.6, cc 100 mM): 0.867 | Ratio Tau Onset (pH 7.3/8.6, cc 100 mM): 0.846 | log Ratio App Aff (pH 7.3/8.6, cc 100 mM): 0.572 | τoffset [3]: 13.00 s | τonset [3]: 8.80 s | Kd [4]: 141 µM | τoffset [5]: 15.00 s | τonset [5]: 10.40 s | Kd [6]: 37.7 µM | effect of acidic pH on recovery (pH = 6.0 vs 7.3, in words): decreased recovery | Reversibility (pH=6.0, cc 100 mM): 0.26 | Kd [10]: 317 µM | Reversibility (pH=7.3, cc 100 mM): 0.95 | Kd [11]: 141 µM | Reversibility (pH=8.6, cc 100 mM): 0.52 | Kd [12]: 37.7 µM

Reference: PMC4585259 (Frontiers in Pharmacology, 2015)
